Measurements as given in article PMC11425212 (2024).

Columns and labels:
[1] = test system: ATF4-G4 (Pu22T) (DNA, G4) TAAGGGAGGGAGGGAAGGGAGC; assay: CD melting at 264 nm; details: 5 mM K+ (potassium phosphate); pH 7; 20 µM DNA; COP concentration not given
[2] = test system: ATF4-G4 (Pu22T) (DNA, G4) TAAGGGAGGGAGGGAAGGGAGC; assay: fluorescence titration; details: 50 mM K+; 0.2 µM COP, DNA added stepwise; excitation 377 nm, emission 520-600 nm
[3] = test system: ATF4-G4 (Pu22T) (DNA, G4) TAAGGGAGGGAGGGAAGGGAGC; assay: NMR solution structure and 1H NMR titration; details: 10 mM K+ (structure); 50 mM K+ (titration); pH 7, 25 °C; 2.11 mM DNA with 2.4 equivalents COP

`c1c2c(cc3c1OCO3)-c1cc3ccc4c(c3c[n+]1CC2)OCO4` was tested, and the ΔTm [1] was 25 °C, the Kd [2] was ~ 3.9 µM and the binding [3] was “yes”.
